The structures appear in SMILES notation. Where “and” joins values, the source holds several entries; their conditions need not be identical. Equal values may be shown once. Read-outs that look alike come from different tables or passages of the source.

Experiment [1] deals with test subject. Format: in vivo, human. The note with it: for change in vivo at 1 mg / change in vivo at 0.2 mg: Homo sapiens, 10 min.
Experiment [2] relates to test subject. Description: Bicycle ergometer test at 100 W: antagonism between inactive (1st dosage) and active (2nd dosage) substances (Example 1b). The note with it: for Average heart rate after 1st dosage: 10-minute test at 100 W; for Change in the oxygen consumption after 2nd dosage: relative to after 1st dosage. Format: in vivo, human. As to the method:
(§1) 13 to Mar. 6, 1999, with a subject in good physical condition under standard conditions. The subject was required each morning in the fasting state to perform successively (without interruption) at mechanical power output of 100 W, 125 W and 150 W, each lasting 10 minutes (total test duration 30 minutes each time). […] The heat production induced by mechanical exertion was calculated from the changes in the heart rate. An alternative possibility is also to determine it on the basis of the increase in humidity caused by the perspiration (the tests are carried out in a closed room) or reduction in weight (1 g of water=2.26 kJ). […] The values indicated in table la for the “average heart rate” are in each case averages over the 30-minute duration of the test; relative values for the oxygen consumption were established on the basis of the heart rates in a known manner, and the relative values indicated in Table 1a are based on the oxygen consumption on the first day (=100%); the values listed in the column “heat production” in Table 1a give the percentage deviation of the heat production, established on the basis of the perspiration, from the average from all the tests.
(§2) It is known that the oxygen uptake can be determined by measuring the heart rate as a function of the mechanical exertion. This ergometric method is based on establishing the oxygen transport volume through the action of the heart. Since the stroke volume is essentially constant irrespective of the intensity of the mechanical work, and the increased oxygen demand caused by the increase in work results in an increase in the heart rate, the quantity of the transported oxygen can be established by determining the additional heartbeats caused by the work. A 3-stage ergometer as recommended by the World Health Organization (WHO) is used in physiology research institutes and fitness clubs around the world.

Experiment [3] is described as follows: Oxygen-sparing action during physical work, general findings in the description. The following applies: result in words; for Oxygen demand after administration: even occasionally increased. Format: in vivo.
For experiment [4], the system named is test subject. The experiment is described as follows: Bicycle ergometer test at 100 W: active ingredient, sucrose, further active ingredient, amino acid/vitamin product (Example 1c). It is filed as in vivo, human. The following applies: for Average heart rate after 4th dos.: 4th dosage 100 mg of Na glutamate, 0.3 mg of folic acid, 5 μg of cyanocobalamin in 10 mg of gelatin; for Average heart rate after 2nd dos.: then 2nd dosage 2.5 g of sucrose. As for the experimental part:
as §1, §2

Experiment [5] deals with test subject. Described as above. It is filed as in vivo, human. The following applies: for Change in oxygen consumption after 2nd dos.: 2nd dosage 2.5 g of sucrose; for Change in oxygen consumption after 2nd dos. / Change in oxygen consumption after 4th dos. / Change in oxygen consumption after 3rd dos.: relative to preceding dosage; for Change in oxygen consumption after 4th dos.: 4th dosage Na glutamate/folic acid/cyanocobalamin/gelatin; for Average heart rate after 1st dos.: 10-minute test at 100 W.

Experiment [6] concerns test subject. The following applies: 125 W.
From the text: Unless otherwise indicated, the tests each took place in the morning in the fasting state, with mechanical power outputs of 100 W, 125 W or 150 W being required in each case from the test subject during one or more 10-minute test periods. A bicycle ergometer from Ergo Fit (Kaiserslautern, Germany) was used for this, and the required work was controlled at 60 pedal revolutions per minute in each case (controlled by a metronome from Seiko, Japan) by means of an eddy current brake. A heart rate computer from Polar Electro (Kempele, Finland) was used for continuous measurement of the heart rate; the atmospheric pressure was measured by an electronic barograph from Altitude Instrumentation (Paris, France) with a resolution of 0.1 mbar; the temperature and relative humidity were measured by an electronic thermohygrometer. The “average heart rates” indicated in the tables are in each case averages of the particular test period. The test subject received a high-carbohydrate diet mainly composed of pasta, and meat of young animals (veal, chicken, fish) in order to ensure an adequate supply of protein, throughout the series of tests. Only 1 test was carried out on each day.
Only 1 test was carried out on each day.
The subject of experiment [7] is test subject. Description: Bicycle ergometer test at 100 W with gelatin products (Example 7). Format: in vivo, human. As to the method:
In tests analogous to Example 1, the tests indicated in Table 7 were carried out with gelatin products which were produced in analogy to Examples 3-5. After a warm-up period of 5 minutes in each case firstly the heartbeats were recorded at a mechanical power output of 100 W during a 10-minute control test, then the 1st dosage was administered and immediately thereafter the heart rate was measured in a 10-minute test period with a power output of 100 W. In the case of a 2nd dosage, this further administration and a second 10-minute test period take place with a power output of 100 W immediately following the first test period.

Setting [8] is: read-out: Change in the oxygen demand.
The mark [9] stands for this setting: read-out: Heat production (deviation from the average of all the tests).
Setting [10] is: 3rd dosage further 0.2 mg of active ingredient after sucrose.
[11] abbreviates: after 0.2 mg of active ingredient.
Where [12] appears, read: 1st dosage 0.2 mg as dilute aqueous solution.
Where [13] appears, read: 3rd dosage further 0.2 mg of active ingredient.
The mark [14] stands for this setting: 3rd dosage further 1 mg of active ingredient after sucrose.
[15] abbreviates: after 1 mg of active ingredient.
Setting [16] is: 1st dosage 1 mg as dilute aqueous solution.
[17] abbreviates: 3rd dosage further 1 mg of active ingredient.

As for `O=C1CN=C(c2ccccn2)c2cc(Br)ccc2N1` [bromazepam], the change in vivo at 1 mg in experiment [1] (setting [8]) is 0%; in experiment [1] (setting [9]), 6%. Besides, the “Average heart rate after 1st dosage” value in experiment [2] (1st dosage 3 mg in 20 ml of water) was found to be 129.3 per minute. Further, the change in vivo at 3 mg in experiment [2] (Homo sapiens, 1st dosage 3 mg, 100 W, read-out: Change in the oxygen consumption after 1st dosage) turned out to be 23%. In experiment [3], the “Oxygen demand after administration” value was “not reduced”.
Regarding `COc1ccc2c3c1O[C@H]1[C@@H](O)C=C[C@H]4[C@@H](C2)N(C)CC[C@@]341` [codeine], the change in vivo at 0.2 mg in experiment [1] (setting [8]) is -29%; in experiment [1] (setting [9]) it was -27%. In addition, the “Change in the oxygen consumption after 2nd dosage” value (from here on “Change in the oxygen consumption”) in experiment [2] (2nd dosage 0.5 mg, after 0.5 mg of flupentixol, 100 W) is recorded as −57%; in experiment [2] (2nd dosage 0.5 mg, after 1 mg of lorazepam, 100 W), −59%; in experiment [2] (2nd dosage 0.5 mg, after 6 mg of amitriptyline + 2.5 mg of chlordiazepoxide, 100 W), −52%; in experiment [2] (2nd dosage 0.5 mg, after 7 mg of oxazepam, 100 W) it was −67%; in experiment [2] (2nd dosage 0.5 mg, after 10 mg of chlorprotixen, 100 W), −69%. The “Average heart rate after 2nd dosage” value stood at 89.7 per minute in experiment [2] (2nd dosage 0.5 mg, after 1st dosage of 0.5 mg of flupentixol, 100 W); 91.8 per minute in experiment [2] (2nd dosage 0.5 mg, after 1st dosage of 1 mg of lorazepam, 100 W); 86.5 per minute in experiment [2] (2nd dosage 0.5 mg, after 1st dosage of 6 mg of amitriptyline + 2.5 mg of chlordiazepoxide, 100 W); 104.1 per minute in experiment [2] (2nd dosage 0.5 mg, after 1st dosage of 7 mg of oxazepam, 100 W); 90.0 per minute in experiment [2] (2nd dosage 0.5 mg, after 1st dosage of 10 mg of chlorprotixen, 100 W). Moreover, in experiment [4] (0.2 mg series), the “Average heart rate after 4th dos.” value turned out to be 82.9 per minute. Also, the “Average heart rate after 3rd dos.” value in experiment [4] (setting [10]) is on record as 108 per minute. In addition, the “Average heart rate after 2nd dos.” value in experiment [4] (setting [11]) is 107.3 per minute. Further, in experiment [3], the “Suitability for reducing the oxygen consumption during physical work” value is given as “suitable”. In addition, the “Change in oxygen consumption after 2nd dos.” value (shortened to “Change … after 2nd dos.”) in experiment [5] (0.2 mg series) is “+69%”. The “Change in oxygen consumption after 4th dos.” value (“Change … after 4th dos.” below) in experiment [5] (0.2 mg series) was −50%. The “Average heart rate after 1st dos.” value in experiment [5] (setting [12]) came to 73.0 per minute. In addition, the “Change in oxygen consumption after 3rd dos.” value (from here on “Change … after 3rd dos.”) in experiment [5] (setting [13]) is reported as “+2%”.
Consider `COc1ccc2c(c1)[C@]13CCCC[C@@H]1[C@H](C2)N(C)CC3` [dextromethorphan], for which the change in vivo at 0.2 mg in experiment [1] (setting [8]) was -57%. Besides, the change in vivo at 0.2 mg in experiment [1] (setting [9]) was -49%. Moreover, the “Change in the oxygen consumption” value in experiment [2] (2nd dosage 0.2 mg, after 6 mg of amitriptyline + 2.5 mg of chlordiazepoxide, 100 W) is listed as −81%. For the same compound, the “Average heart rate after 2nd dosage” value in experiment [2] (2nd dosage 0.2 mg, after 1st dosage of 6 mg of amitriptyline + 2.5 mg of chlordiazepoxide, 100 W) was 84.8 per minute. The “Average heart rate after 4th dos.” value in experiment [4] (0.2 mg series) is reported as 87.8 per minute. In addition, the “Average heart rate after 3rd dos.” value in experiment [4] (setting [10]) is 111 per minute. Moreover, the “Average heart rate after 2nd dos.” value in experiment [4] (setting [11]) is listed as 110.4 per minute. The “Suitability for reducing the oxygen consumption during physical work” value in experiment [3] is given as “suitable”. In experiment [5] (0.2 mg series), the “Change … after 2nd dos.” value is “+69%” and the “Change … after 4th dos.” value is recorded as −46%. The “Average heart rate after 1st dos.” value in experiment [5] (setting [12]) was 75.8 per minute. Moreover, the “Change … after 3rd dos.” value in experiment [5] (setting [13]) is on record as “+1%”.
Regarding `CN1C(=O)CN=C(c2ccccc2)c2cc(Cl)ccc21` [diazepam], the change in vivo at 1 mg is -44% in experiment [1] (setting [8]) and -50% in experiment [1] (setting [9]). Besides, the “Change in the oxygen consumption” value in experiment [2] (2nd dosage 1 mg, after 3 mg of bromazepam, 100 W) is reported as −65%; in experiment [2] (2nd dosage 1 mg, after 7 mg of oxazepam, 100 W), −72%; in experiment [2] (2nd dosage 1 mg, after 10 mg of nitrazepam, 100 W), −59%. Moreover, the “Average heart rate after 2nd dosage” value in experiment [2] (2nd dosage 1 mg, after 1st dosage of 3 mg of bromazepam, 100 W) turned out to be 97.0 per minute; in experiment [2] (2nd dosage 1 mg, after 1st dosage of 7 mg of oxazepam, 100 W), 89.4 per minute; in experiment [2] (2nd dosage 1 mg, after 1st dosage of 10 mg of nitrazepam, 100 W), 102.1 per minute. In addition, the “Average heart rate after 4th dos.” value in experiment [4] (1 mg series) amounted to 86.3 per minute. The “Average heart rate after 3rd dos.” value in experiment [4] (setting [14]) was determined as 113.1 per minute. Also, in experiment [4] (setting [15]), the “Average heart rate after 2nd dos.” value turned out to be 111.9 per minute. Also, the “Suitability for reducing the oxygen consumption during physical work” value in experiment [3] was “suitable”. Moreover, the Average heart rate in experiment [6] (1 mg, atmospheric pressure 1010.0 mbar) worked out at 80 per minute; in experiment [6] (1 mg, atmospheric pressure 1010.8 mbar) it was 71 per minute; in experiment [6] (1 mg, atmospheric pressure 1015.2 mbar), 77 per minute; in experiment [6] (1 mg, atmospheric pressure 1015.9 mbar) it was 72 per minute; in experiment [6] (1 mg, atmospheric pressure 1017.4 mbar), 74 per minute; in experiment [6] (1 mg, atmospheric pressure 1017.5 mbar) it was 72 per minute. For the same compound, the Average heart rate stood at 76 per minute in experiment [6] (1 mg, atmospheric pressure 1021.7 mbar); 75 per minute in experiment [6] (1 mg, atmospheric pressure 1026.3 mbar); 76 per minute in experiment [6] (2 mg, atmospheric pressure 1005.9 mbar); 79 per minute in experiment [6] (2 mg, atmospheric pressure 1007.8 mbar). Further, the “Effect of low atmospheric pressure on heart rate and oxygen consumption” value in experiment [6] (result in words) is “can be compensated”. Moreover, the “Change … after 2nd dos.” value in experiment [5] (1 mg series) is on record as “+74%”. Moreover, the “Change … after 4th dos.” value in experiment [5] (1 mg series) is listed as −54%. Further, in experiment [5] (setting [16]), the “Average heart rate after 1st dos.” value was determined as 74.8 per minute. In addition, in experiment [5] (setting [17]), the “Change … after 3rd dos.” value is “+2%”.
Turning to `Cc1ncc2n1-c1ccc(Cl)cc1C(c1ccccc1F)=NC2` [midazolam], the change in vivo at 1 mg in experiment [1] (setting [8]) was -42%. The “Effect on the heart rate, the oxygen consumption and the heat production” value in experiment [1] (low dosage, 125 W, result in words) was “marked reduction in the heart rate, the oxygen consumption and the heat production”. The “Average heart rate after 4th dos.” value in experiment [4] (1 mg series) came out at 83.2 per minute. The “Average heart rate after 3rd dos.” value in experiment [4] (setting [14]) is recorded as 112.1 per minute. Moreover, the “Average heart rate after 2nd dos.” value in experiment [4] (setting [15]) amounted to 110.9 per minute. In addition, in experiment [3], the “Suitability for reducing the oxygen consumption during physical work” value was “suitable”. Also, in experiment [5] (1 mg series), the “Change … after 2nd dos.” value is on record as “+70%” and the “Change … after 4th dos.” value is on record as −58%. Besides, the “Average heart rate after 1st dos.” value in experiment [5] (setting [16]) was determined as 75.9 per minute. For the same compound, the “Change … after 3rd dos.” value in experiment [5] (setting [17]) is “+2%”.
Regarding `O=C1CN=C(c2ccccc2)c2cc([N+](=O)[O-])ccc2N1` [nitrazepam], the change in vivo at 1 mg in experiment [1] (setting [8]) was determined as 0%; in experiment [1] (setting [9]), 7%. The “Average heart rate after 1st dosage” value in experiment [2] (1st dosage 10 mg in 20 ml of water) came out at 131.4 per minute. In addition, the change in vivo at 10 mg in experiment [2] (Homo sapiens, 1st dosage 10 mg, 100 W, read-out: Change in the oxygen consumption after 1st dosage) was 21%. For the same compound, in experiment [3], the “Oxygen demand after administration” value is reported as “not reduced”.
For the compound `CC(CN(C)C)CN1c2ccccc2CCc2ccccc21` (stereo not shown) [trimipramine], the “Average heart rate after 1st dos.” value in experiment [7] (1st dosage 12.5 mg, 100 W) was 101.7 per minute and 97.0 per minute. Also, the “Average heart rate before” value in experiment [7] (10-minute control test at 100 W before the 1st dosage) was 79.8 per minute and 81.7 per minute. The “Oxygen demand after administration” value in experiment [3] is reported as “not reduced”.

The values are drawn from US6703371B1, “Preparations for reducing oxygen consumption during physical efforts” (priority 1999, dated 2004).
